pIC50: −log10 of the molar value.
Columns and labels:
[1] = molecular target: T1, Dual specificity mitogen-activated protein kinase kinase 1 (Homo sapiens, UniProt Q02750); assay: Non-competitive inhibition of the dual specificity kinase MEK at the concentration 10 uM
[2] = molecular target: T1, Dual specificity mitogen-activated protein kinase kinase 1; assay: Inhibition of the dual specificity kinase MEK-1 (Inactive)
[3] = molecular target: Dual specificity mitogen-activated protein kinase kinase; MEK1/2 (Homo sapiens, UniProt P36507+Q02750); assay: Ability to antagonise AP-1 transcriptional activity; assay type: functional
[4] = molecular target: T1, Dual specificity mitogen-activated protein kinase kinase 1

T1 sequence (Q02750 whole entry): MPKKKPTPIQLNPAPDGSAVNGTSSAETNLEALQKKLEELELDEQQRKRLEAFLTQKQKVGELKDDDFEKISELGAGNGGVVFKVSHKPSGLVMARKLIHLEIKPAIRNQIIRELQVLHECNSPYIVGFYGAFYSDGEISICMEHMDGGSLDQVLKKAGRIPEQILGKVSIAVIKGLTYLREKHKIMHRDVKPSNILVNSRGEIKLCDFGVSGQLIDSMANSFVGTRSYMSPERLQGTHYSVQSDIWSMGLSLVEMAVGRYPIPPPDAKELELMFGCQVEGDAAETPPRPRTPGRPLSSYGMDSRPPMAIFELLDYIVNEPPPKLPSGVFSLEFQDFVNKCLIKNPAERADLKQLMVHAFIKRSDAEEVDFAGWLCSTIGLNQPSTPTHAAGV

SMILES	inhibition [1]	IC50 [2]	IC50 [3]	pIC50 [4]
CC(=O)Nc1ccc(S/C(N)=C(C#N)/C(C#N)=C(\N)Sc2ccc(NC(C)=O)cc2)cc1	0%	–	–	–
N#CC(=C(/N)SCCO)/C(C#N)=C(\N)SCCO	0%	–	–	–
N#CC(=C(/N)Sc1ccc(-c2ccccc2)cc1)/C(C#N)=C(\N)Sc1ccc(-c2ccccc2)cc1	34%	–	–	–
N#Cc1c(C#N)c2sc3ccccc3n2c1Sc1ccccc1N	–	Not Active	–	–
COc1ccc(OC)c(S/C(N)=C(C#N)/C(C#N)=C(\N)Sc2cc(OC)ccc2OC)c1	18%	–	–	–
N#CC(=C(/N)Sc1cc(I)ccc1N)/C(C#N)=C(\N)Sc1cc(I)ccc1N	34.8%	–	–	–
N#Cc1c(N)[nH]c(Sc2ccccc2N)c1C#N	–	–	26200 nM	4.87
N#CC(=C(/N)Sc1cccs1)/C(C#N)=C(\N)Sc1cccs1	–	–	1200 nM	6.52
N#CC(=C(/N)Sc1c(Cl)cccc1Cl)/C(C#N)=C(\N)Sc1c(Cl)cccc1Cl	–	–	6500 nM	5.55
N#CC(=C(/N)Sc1ccccc1F)/C(C#N)=C(\N)Sc1ccccc1F	–	–	7600 nM	6.05
Cc1ccccc1S/C(N)=C(C#N)/C(C#N)=C(\N)Sc1ccccc1C	–	–	13300 nM	5.70
N#Cc1c(Sc2ccc3ccccc3c2)[nH]c(Sc2ccc3ccccc3c2)c1C#N	–	–	28900 nM	5.68
N#CC(=C(/N)Sc1ccc2ccccc2c1)/C(C#N)=C(\N)Sc1ccc2ccccc2c1	54%	–	–	–
N#CC(=C(/N)Sc1ccccc1O)/C(C#N)=C(\N)Sc1ccccc1O	–	–	400 nM	6.52
N#CC(=C(/N)Sc1ccccc1N)/C(C#N)=C1\Nc2ccccc2S1	–	–	18700 nM	5.49
N#CC(=C(/N)Sc1cccc(-c2ccccc2)c1)/C(C#N)=C(\N)Sc1cccc(-c2ccccc2)c1	54.6%	–	–	–
N#CC(=C(/N)Sc1ccc2ccccc2c1N)/C(C#N)=C(\N)Sc1ccc2ccccc2c1N	–	–	–	5.68
N#CC(=C(/N)Sc1cccc2ccccc12)/C(C#N)=C(\N)Sc1cccc2ccccc12	26%	–	–	–
N#CC(=C1/Nc2ccccc2S1)/C(C#N)=C1\Nc2ccccc2S1	–	–	42500 nM	6.15
N#CC(=C(/N)Sc1cccc(Cl)c1)/C(C#N)=C(\N)Sc1cccc(Cl)c1	–	–	18400 nM	5.72

SMILES	inhibition [1]	IC50 [2]	IC50 [3]	pIC50 [4]
N#CC(=C(/N)Sc1ccccc1)/C(C#N)=C(\N)Sc1ccccc1	–	–	12200 nM	6.05
COc1ccc(S/C(N)=C(C#N)/C(C#N)=C(\N)Sc2ccc(OC)c(OC)c2)cc1OC	0%	–	–	–
N#CC(=C(/N)Sc1ccc(C(F)(F)F)cc1)/C(C#N)=C(\N)Sc1ccc(C(F)(F)F)cc1	33%	–	–	–
CS/C(N)=C(C#N)/C(C#N)=C(\N)SC	24%	–	–	–
N#CC(=C(/N)Sc1ccccc1Br)/C(C#N)=C(\N)Sc1ccccc1Br	–	–	7900 nM	5.96
N#Cc1c(N)[nH]c(Sc2ccc3ccccc3c2)c1C#N	–	–	25100 nM	5.85
N#CC(=C(/N)Sc1ccc(O)cc1)/C(C#N)=C(\N)Sc1ccc(O)cc1	–	–	–	6.40
CN1/C(=C(C#N)\C(C#N)=C2\Sc3ccccc3N2C)Sc2ccccc21	–	Not Active	–	–
N#CC(=C(/N)Sc1cccc(C(F)(F)F)c1)/C(C#N)=C(\N)Sc1cccc(C(F)(F)F)c1	32%	–	–	–
CC(=O)Nc1ccccc1Sc1c(C#N)c(C#N)c2sc3ccccc3n12	–	Not Active	–	–
CCc1ccccc1S/C(N)=C(C#N)/C(C#N)=C(\N)Sc1ccccc1CC	18%	–	–	–
COc1ccccc1S/C(N)=C(C#N)/C(C#N)=C(\N)Sc1ccccc1OC	–	–	16500 nM	5.35
N#CC(=C(/N)Sc1ccccc1CO)/C(C#N)=C(\N)Sc1ccccc1CO	51%	–	–	–
N#CC(=C(/N)Sc1c(F)c(F)c(F)c(F)c1F)/C(C#N)=C(\N)Sc1c(F)c(F)c(F)c(F)c1F	17%	–	–	–
N#CC(=C(/N)Sc1ccc(Cl)cc1)/C(C#N)=C(\N)Sc1ccc(Cl)cc1	–	–	21700 nM	5.68
N#CC(=C(/N)Sc1ccccc1Cl)/C(C#N)=C(\N)Sc1ccccc1Cl	–	–	6600 nM	6.05
CNc1ccccc1S/C(N)=C(C#N)/C(C#N)=C(\N)Sc1ccccc1NC	19.1%	–	–	–
N#Cc1c(NS(=O)(=O)c2ccccc2)[nH]c(Sc2ccc3ccccc3c2)c1C#N	–	–	8000 nM	5.72
N#CC(=C(/N)Sc1ccccc1-c1ccccc1)/C(C#N)=C(\N)Sc1ccccc1-c1ccccc1	8.7%	–	–	–
N#CC(=C(/N)Sc1ccccc1[N+](=O)[O-])/C(C#N)=C(\N)Sc1ccccc1[N+](=O)[O-]	41%	–	–	–
